Data taken from paper PMC4761355, “Pre-clinical evaluation of eight DOTA coupled gastrin-releasing peptide receptor (GRP-R) ligands for in vivo targeting of receptor-expressing tumors” (EJNMMI Research, 2016).
Where two headings read alike, the source gives them in different places. Where a SMILES comes first, the peptide text is derived from it. [ ]: non-standard residue; d: D form. The star is where a group is joined. DOTA = O=C(O)CN1CCN(CC(=O)O)CCN(CC(=O)*)CCN(CC(=O)O)CC1; Sta = CC(C)C[C@H](N)[C@@H](O)CC(=O)O; Cha = N[C@@H](CC1CCCCC1)C(=O)O; Nle = CCCC[C@H](N)C(=O)O; AEEA = NCCOCCOCC(=O)O; Sar = CNCC(=O)O

Legend:
[1] = molecular target: T1, gastrin-releasing peptide receptor (GRP-R) on PC-3 human prostate cancer cells (Homo sapiens, UniProt P30550); experiment: Saturation binding experiments on whole PC-3 cells with 111In-labeled DOTA-PEG4-BN conjugates; details: 4 °C; for B max (binding sites/cell) *10^5: 111In-labeled
T1 construct: endogenous in cells; host or cells: PC-3 human prostate cancer cells
Procedure: DOTA-PEG4-BN conjugates were studied in vitro performing saturation binding experiments on whole cells. The DOTA coupled derivatives were labeled in Eppendorf tubes containing 10 μL of ^111InCl3 (50–150 KBq/μL), 1 nmol of peptide (10 μM final concentration), and sodium acetate buffer (0.4 M, pH 5) adjusted to a final volume of 100 μL. The solution was incubated for 30 min at 95 °C in a heating block. Silica gel thin layer chromatography using 0.1 N sodium citrate (pH 5) as mobile phase was utilized for quality control. […] Saturation of free chelators with cold indium was not performed. Confluent PC-3 human prostate cancer cells were seeded in six-well plates (~1.0 × 10^6 cells) 24 h before starting the experiments. Increasing concentrations of the ^111In-DOTA-peptide ranging from 50 to 0.05 nM were assigned to different wells. For blocking experiments, excess of the respective unlabeled peptide was used. For each radioligand, triplicates were prepared for every concentration, for both total binding and nonspecific binding. Before adding the radioligands to the wells, the plates were placed on ice for 30 min. After adding the radioligands and the blocking for nonspecific binding, the plates were incubated for 1 h at 4 °C. Afterwards, the binding buffer was removed and the cells were washed twice with ice-cold phosphate-buffered saline (PBS; pH 7.4). Cell-bound radioactivity was subsequently recovered by trypsinization of the wells. Radioactivity in the bound and free fractions was determined with a WIZARD gamma counter (Wallac, Turku, Finland). Specific binding was calculated by subtracting nonspecific from total binding at each concentration of radioligand. Affinity (Kd) and binding site density (Bmax) were calculated from Scatchard plots using Prism software (GraphPad Software Inc.).
Saturation binding experiments were performed on PC-3 cells at 4 °C.

[2] = system: PC-3 xenografts; experiment: Biodistribution in nude mice bearing subcutaneous PC-3 xenografts; type: in vivo, CD1 nude mice
Procedure: (§1) For animal experiments, the institutional and national guide for the care and use of laboratory animals was followed. CD1 nude mice (n = 36, female, 6 weeks old, 18-22 g body weight) were subcutaneously injected in the right thigh with 2 × 10^6 PC-3 cells in 300 μl of a medium-to-matrigel solution (50:50, v:v, BD Biosciences). […] DOTA-PEG4-BN conjugates were radiolabelled with ^111In as described elsewhere, and 1.85 MBq (0.25 μg, 7.4 MBq/μg in 100 μl NaCl) of radiopharmaceutical was injected in the tail vein of each animal. Injected dose was determined by counting the syringe before and after injection. At 1 h post injection, three mice per group were anesthetized and placed on a horizontal support for planar imaging. The same procedure was repeated at 6 h and 24 h post injection. Images were acquired for 60 to 90 s with a high-resolution scintigraphic camera equipped with a square tungsten collimator integrated with a CsI(Tl) scintillation structure, coupled to a Hamamatsu […] Flat Panel Position Sensitive Photomultiplier Tube (PSPMT), a pure tungsten shielding housing, a charge readout electronics, and a data acquisition system for online image display. Region of interest (ROI) analysis was performed by drawing a region over the visible tumor (target) and copying it to the opposite thigh (background). The counts in the tumor ROI divided by the counts in the background ROI provided tumor-to-background (T/B) ratios. After each imaging session, mice were euthanized. The organs and the tumors were excised and weighed, and the radioactivity was determined using a single well γ-counter. Results were expressed as percentage of injected dose per gram (%ID/g) of tissue.

[3] = Serum stability of 177Lu-labeled peptides in human serum; type: in vitro ADME; details: human serum (freshly prepared), 37 °C
Procedure: Quality controls to determine the labeling yield and the radiochemical purity were performed using radio-HPLC. Radiolabeled peptides were utilized without further purification. […] The mixture was incubated in a 5 % CO2, 37 °C. At different time points, 100 μL aliquots (in triplicates) were removed and treated with 200 μL of EtOH to precipitate serum proteins. Samples were then centrifuged for 15 min at 5000 rpm (2655g). After centrifugation, 50 μL of supernatant was removed and counted in a γ-well counter; the sediment was washed twice with 1 mL of EtOH and counted. The activity in the supernatant was compared with the activity in the pellet to obtain the percentage of peptide not bound to proteins or radiometal transferred to serum proteins. The supernatant was also analyzed with radio-HPLC (eluents: A = 0.1 % trifluoroacetic acid in water and B = acetonitrile; gradient 0–25 min 95–50 % B) to determine the relative amount of intact peptide and its metabolites in the serum. The half-life was calculated fitting a first-order reaction to the experimental data (Equation 1) using Prism software (GraphPad Software Inc.).

[4] = system: PC-3 xenografts; experiment: Gamma camera planar imaging, tumor-to-background ROI analysis in mice with PC-3 xenografts; type: in vivo, CD1 nude mice
Procedure: as §1, with “Region of interest (ROI) analysis was performed by drawing a region over the visible tumor (target) and copying it to the opposite thigh (background). The counts in the tumor ROI divided by the counts in the background ROI provided tumor-to-background (T/B) ratios. After each imaging session, mice were euthanized.” left out

[5] = Biodistribution in nude mice bearing subcutaneous PC-3 xenografts; type: in vivo, CD1 nude mice; details: female, CD1 nude, mouse, blood, iv, 0.25 μg, total radioactivity; 111In-labeled, 1 h post injection
Procedure: as §1

[6] = 111In-labeled, i.v., 1, 6, 24 h
[7] = first-order fit, read-out: Serum half-life (converted)

T1 sequence (P30550 whole entry): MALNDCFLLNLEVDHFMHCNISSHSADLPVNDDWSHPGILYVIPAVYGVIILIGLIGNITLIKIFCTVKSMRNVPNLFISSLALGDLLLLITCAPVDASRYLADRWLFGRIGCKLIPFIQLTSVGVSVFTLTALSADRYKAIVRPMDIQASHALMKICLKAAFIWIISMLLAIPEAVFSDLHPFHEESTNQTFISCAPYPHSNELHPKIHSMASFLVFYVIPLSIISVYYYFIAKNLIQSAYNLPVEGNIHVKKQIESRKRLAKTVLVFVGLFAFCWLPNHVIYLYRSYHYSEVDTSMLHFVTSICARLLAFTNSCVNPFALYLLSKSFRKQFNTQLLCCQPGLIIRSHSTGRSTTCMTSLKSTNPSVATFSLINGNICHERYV

Row | B max (binding sites/cell) *10^5 [1] [binding sites/cell *10^5] | half-life at 0.6 nmol/mL [3, 7] [h] | SMILES | Tumor targeting / uptake in PC-3 xenografts (in words) [2, 6] | other results
1 | 2.45 ± 0.73 |  | CSCC[C@H](NC(=O)[C@H](CC(C)C)NC(=O)[C@H](Cc1c[nH]cn1)NC(=O)CNC(=O)[C@@H](NC(=O)[C@H](C)NC(=O)[C@H](Cc1c[nH]c2ccccc12)NC(=O)[C@H](CCC(N)=O)NC(=O)COCCOCCNC(=O)COCCOCCNC(=O)CN1CCN(CC(=O)O)CCN(CC(=O)O)CCN(CC(=O)O)CC1)C(C)C)C(N)=O [BN1] | rather poor | Blood clearance / circulating half-life (in words) ([2]; mouse, in vivo, iv): very rapid blood clearance
2 |  | 208 | CC(C)C[C@H](NC(=O)C[C@H](O)[C@H](CC(C)C)NC(=O)[C@H](Cc1c[nH]cn1)NC(=O)CNC(=O)[C@@H](NC(=O)[C@H](C)NC(=O)[C@H](Cc1c[nH]c2ccccc12)NC(=O)[C@H](CCC(N)=O)NC(=O)[C@@H](Cc1ccccc1)NC(=O)COCCOCCNC(=O)COCCOCCNC(=O)CN1CCN(CC(=O)O)CCN(CC(=O)O)CCN(CC(=O)O)CC1)C(C)C)C(N)=O [BN6, -DPhe-Gln-Trp-Ala-Val-Gly-His-Sta-Leu-NH2] |  | 
3 |  | 414 | CC(C)C[C@H](NC(=O)C[C@H](O)[C@H](CC(C)C)NC(=O)[C@H](Cc1c[nH]cn1)NC(=O)CN(C)C(=O)[C@@H](NC(=O)[C@H](C)NC(=O)[C@H](Cc1c[nH]c2ccccc12)NC(=O)[C@H](CCC(N)=O)NC(=O)[C@@H](Cc1ccccc1)NC(=O)COCCOCCNC(=O)COCCOCCNC(=O)CN1CCN(CC(=O)O)CCN(CC(=O)O)CCN(CC(=O)O)CC1)C(C)C)C(N)=O [BN8, DOTA-PEG-DPhe-Gln-Trp-Ala-Val-NMeGly-His-Sta-Leu-NH2] | highest tumor uptake | half-life at 0.6 nmol/mL ([3]; read-out: Serum/plasma half-life): > 360 h; Imaging contrast of tumor uptake (in words) ([4]; gamma camera, 6 h post injection): best contrast of tumor uptake compared to other organs
4 |  | 40.7 | CCCC[C@H](NC(=O)[C@H](CC1CCCCC1)NC(=O)[C@H](Cc1c[nH]cn1)NC(=O)CNC(=O)[C@@H](NC(=O)[C@H](C)NC(=O)[C@H](Cc1c[nH]c2ccccc12)NC(=O)[C@H](CCC(N)=O)NC(=O)COCCOCCNC(=O)COCCOCCNC(=O)CN1CCN(CC(=O)O)CCN(CC(=O)O)CCN(CC(=O)O)CC1)C(C)C)C(=O)N[C@@H](CCC(=O)O)C(N)=O [BN3, -Gln-Trp-Ala-Val-Gly-His-Cha-Nle-Glu-NH2] ({DOTA-AEEA-AEEA}-QWAVGH[Cha][Nle]E-NH2) |  | Specific binding to PC-3 cells (in words) [1]: no specific binding was detectable
5 |  | ~20 | CCCC[C@H](NC(=O)[C@H](CC1CCCCC1)NC(=O)[C@H](Cc1c[nH]cn1)NC(=O)CNC(=O)[C@@H](NC(=O)[C@H](C)NC(=O)[C@H](Cc1c[nH]c2ccccc12)NC(=O)[C@H](CCC(N)=O)NC(=O)[C@@H](Cc1ccccc1)NC(=O)COCCOCCNC(=O)COCCOCCNC(=O)CN1CCN(CC(=O)O)CCN(CC(=O)O)CCN(CC(=O)O)CC1)C(C)C)C(N)=O [BN7, -DPhe-Gln-Trp-Ala-Val-Gly-His-Cha-Nle-NH2] | overall poor targeting to the receptor-positive xenografts | Blood clearance / circulating half-life (in words) [2, 6]: very rapid blood clearance
6 | 5.54 ± 1.56 | 224 | CC(C)C[C@H](NC(=O)C[C@H](O)[C@H](CC(C)C)NC(=O)[C@H](Cc1c[nH]cn1)NC(=O)CNC(=O)[C@@H](NC(=O)[C@H](C)NC(=O)[C@H](Cc1c[nH]c2ccccc12)NC(=O)[C@H](CCC(N)=O)NC(=O)COCCOCCNC(=O)COCCOCCNC(=O)CN1CCN(CC(=O)O)CCN(CC(=O)O)CCN(CC(=O)O)CC1)C(C)C)C(N)=O [BN4, -Gln-Trp-Ala-Val-Gly-His-Sta-Leu-NH2] ({DOTA-AEEA-AEEA}-QWAVGH[Sta]L-NH2) | very high initial uptake that dropped at later time points | tissue uptake at 1 h [5]: ~5 %ID/g; Blood clearance / circulating half-life (in words) [2, 6]: longest circulating half-life of all tested compounds; Tumor-to-background (T/B) ratios in vivo (in words) ([4]; 111In-labeled, tumor ROI vs opposite thigh): least favorable of all peptides
7 | 4.10 ± 1.23 | ~20 | CCCC[C@H](NC(=O)[C@H](CC1CCCCC1)NC(=O)[C@H](Cc1c[nH]cn1)NC(=O)CNC(=O)[C@@H](NC(=O)[C@H](C)NC(=O)[C@H](Cc1c[nH]c2ccccc12)NC(=O)[C@H](CCC(N)=O)NC(=O)COCCOCCNC(=O)COCCOCCNC(=O)CN1CCN(CC(=O)O)CCN(CC(=O)O)CCN(CC(=O)O)CC1)C(C)C)C(N)=O [BN2, -Gln-Trp-Ala-Val-Gly-His-Cha-Nle-NH2] ({DOTA-AEEA-AEEA}-QWAVGH[Cha][Nle]-NH2) |  | 
8 | 1.56 ± 0.39 |  | CC(C)C[C@H](NC(=O)C[C@H](O)[C@H](CC(C)C)NC(=O)[C@H](Cc1c[nH]cn1)NC(=O)CN(C)C(=O)[C@@H](NC(=O)[C@H](C)NC(=O)[C@H](Cc1c[nH]c2ccccc12)NC(=O)[C@H](CCC(N)=O)NC(=O)COCCOCCNC(=O)COCCOCCNC(=O)CN1CCN(CC(=O)O)CCN(CC(=O)O)CCN(CC(=O)O)CC1)C(C)C)C(N)=O [BN5, -Gln-Trp-Ala-Val-NMeGly-His-Sta-Leu-NH2] ({DOTA-AEEA-AEEA}-QWAV[Sar]H[Sta]L-NH2) |  | 
